In patent publication US10639345B2, “Compositions for preserving photoreceptor cells, retinal pigment epithelial cells, or visual function” (Massachusetts Eye and Ear Infirmary, priority 2010, dated 2020):
Where a SMILES comes first, the peptide text is derived from it. The star is where a group is joined. Cbz = O=C(OCc1ccccc1)*; CH2F = FC*

Tests used:
[1] = test system: carbonyl adducts of proteins; experiment: Protein carbonyl ELISA (oxidative retinal damage) after retinal detachment; assay type: in vivo; details: day three after retinal detachment, wild type
Experimental: Recent studies reported that RIP kinases regulate downstream ROS production during programmed necrosis (Cho Y S et al. (2009) CELL 137:1112-1123; Zhang D W et al. (2009) SCIENCE 325:332-336; Kim et al. (2007) MOL CELL 26:675-687). ELISA for carbonyl adducts of proteins was used to examine oxidative retinal damage following retinal detachment. Specifically, the amounts of protein carbonyls were determined by using OxiSelect™ Protein Carbonyl ELISA Kit (Cell Biolabs, San Diego, Calif.).

[2] = test system: photoreceptors; experiment: TUNEL-positive photoreceptors in ONL after experimental retinal detachment; assay type: in vivo, rat; details: day three after retinal detachment; subretinal Z-VAD 300 μM and/or Nec-1 400 μM at detachment
[3] = test system: CD11b-positive macrophage/microglia; experiment: CD11b immunofluorescence after retinal detachment in WT mice; assay type: in vivo
Experimental: Immunofluorescence was performed as previously reported (Hisatomi et al. (2008) J CLIN INVEST 118:2025-2038. The enucleated eyes were frozen in OCT compound (Sakura Finetechnical Co., Tokyo, Japan). Five μm-thick sections were cut, air dried and fixed in cold acetone for 10 minutes. Rat anti-CD11b (1:50; BD Biosciences, San Diego, Calif.) was used as the primary antibody and incubated at 4° C. overnight. A nonimmune serum was used as a negative control. Alexa Fluor 594-conjugated goat anti-rat IgG (Invitrogen, Carlsbad, Calif.) was used as the secondary antibody and incubated at room temperature for one hour. The specimens were imaged by confocal microscopy using the Leica HCX APOL40× lens.
FIG. 11C-D show immunofluorescence for CD11b (FIG. 11C) and quantification of CD11b-positive macrophage/microglia (FIG. 11D) in WT and RIP-3−/− retina after retinal detachment.

[4] = test system: photoreceptors; experiment: TUNEL-positive cells after retinal detachment in RIP-3−/− mice; assay type: in vivo; details: three days after retinal detachment
Experimental: The role of RIP-3 in RIP-mediated programmed necrosis in photoreceptor loss after retinal detachment was investigated in RIP-3 knockout (RIP-3−/−) mice. TUNEL assays were used to measure the amount of apoptotic and necrotic cell death (Grasl-Kraupp et al., HEPTALOGY (1995) 21(5):1465-8). TUNEL and quantification of TUNEL positive cells in ONL were performed as described above by using the ApopTag Fluorescein In Situ Apoptosis Detection Kit (Millipore, Billerica, Mass.).

[5] = test system: CD11b-positive macrophage/microglia; experiment: CD11b immunohistochemistry after retinal detachment; assay type: in vivo; details: day three after retinal detachment
Experimental: Immunohistochemistry (IHC) was performed as previously reported (Murakami Y et al. (2008) AM J PATHOL 173:1326-1338). Rat anti-CD11b antibody (1:50; BD Biosciences, San Diego, Calif.) was used as the primary antibody. The specimens were imaged by confocal microscopy using the Leica HCX APOL40× lens.
Since the release of intracellular content in necrosis results in secondary inflammation, changes in the inflammatory response after retinal detachment were investigated by immunohistochemistry and immunofluorescence with an antibody against CD11b. FIG. 11A-B show IHC for CD11b (FIG. 11A) and quantification of CD11b-positive cells in control retina without retinal detachment and in retina treated with vehicle, Z-VAD or Z-VAD+Nec-1 (n=6 each) (FIG. 11B) at three days after retinal detachment. (*, P<0.05; **, P<0.01; NS, not significant; Scale bar, 50 μm).

[6] = test system: photoreceptors; experiment: Poly I:C-induced dry AMD model, TUNEL-positive cells in ONL; assay type: in vivo, mice; details: compared with vehicle
Source text: In this example, the mechanism of photoreceptor cell death in dry AMD was investigated using a polyinosinic:polycytidylic acid (Poly I:C)-induced dry AMD model (Yang et al. (2009) NEJM 359(14):1456-63). Poly I:C is a synthetic double-stranded RNA (dsRNA) analog that activates toll-like receptor 3 (TLR3) signaling (FIG. 20A). Furthermore, dsRNA are known to exist in the drusen of human AMD patients. As depicted in FIG. 20A, activation of the TLR3 signaling results in activation of RIP-1 kinase pathway. […] In the experiments described herein, 2-3 μl of Poly I:C (1 mg/ml) was injected into the subretinal space of the eye (e.g., approximately 2-3 μg of Poly I:C was administered to the eye) to induce AMD.
The thickness of the ONL was determined by the National Institutes of Health ImageJ software. […] Specifically, the number of TUNEL-positive cells in the RIP-3−/− mice treated with poly I:C was at least three fold less than control mice consistent with RIP-3 playing a role in mediating programmed necrosis in AMD (FIG. 22B).
To determine the effect of Nec-1 and a pan-caspase inhibitor in the treatment of AMD, TUNEL assay was performed to assess photoreceptor cell death in the poly I:C induced AMD model. […] The thickness of ONL was also measured.

[7] = test system: Fas-L; experiment: Fas ligand expression after retinal detachment (real-time PCR); assay type: in vivo; details: compared to vehicle treatment
Experimental: Total RNA extraction and reverse transcription were performed as previously reported (Nakazawa T et al. (2006) MOL VIS 12:867-878; Hisatomi T et al. (2008). J CLIN INVEST 118:2025-2038). A real-time PCR assay was performed with Prism 7700 Sequence Detection System (Applied Biosystems, Foster City, Calif.). TaqMan Gene Expression assays were also used to check the expression of MCP-1 (Rn00580555_m1), TNF-α (Rn99999017_m1), and Fas-L (Rn00563754_m1). For relative comparison of each gene, the Ct value of real-time PCR data was analyzed with the ΔΔCt method and normalized by an endogenous control (18S ribosomal RNA).
TNF-α and Fas-L are potent inducer of programmed necrosis as well as apoptosis (Degterev A (2005) NAT CHEM BIOL 1:112-119). The effectiveness of a TNF-α blockade after retinal detachment was measured. […] However, other factors may also contribute to photoreceptor death, as the effect of TNF-α blockade was not as effective as that of Nec-1+Z-VAD treatment. Further, Fas ligand expression increased in Z-VAD-treated retina after retinal detachment compared to vehicle treatment (FIG. 12C), and may play a role in promoting necrotic photoreceptor death in Z-VAD-treated eyes.

[8] = test system: photoreceptors; experiment: TEM quantification of photoreceptor death after retinal detachment in WT mice; assay type: in vivo; details: day three after retinal detachment
Experimental: TEM was performed as previously described (Hisatomi T et al. (2008). J. CLIN. INVEST. 118:2025-2038). […] Over 200 photoreceptors each eye were photographed and subjected to quantification of cell death modes in a masked fashion. Photoreceptors showing cellular shrinkage and nuclear condensation were defined as apoptotic cells, while photoreceptors associated with cellular and organelle swelling and discontinuities in nuclear and plasma membrane were defined as necrotic cells. The presence of electron-dense granular materials were reported to occur subsequent to both apoptotic and necrotic cell death and cells with these findings were labeled simply as end-stage cell death/unclassified (Hisatomi T et al. (2003) AM. J. PATHOL. 162:1869-1879; Erickson P A et al. (1983) INVEST. OPHTHALMOL. VIS. SCI. 24:927-942).
The morphology of the RIP-3−/− retina after retinal detachment was also assessed by TEM. […] RIP-3 deficiency inhibits the switch to necrotic cell death by Z-VAD treatment and prevents photoreceptor death after retinal detachment. Scale bar, 5 μm.

COC(=O)CC(NC(=O)C(C)NC(=O)C(NC(=O)OCc1ccccc1)C(C)C)C(=O)CF (stereo not drawn) [Z-VAD, Benzyloxycarbonyl-Val-Ala-Asp(OMe)-fluoromethylketone] (Cbz-Val-Ala-Asp(OMe)-CH2F; configuration not given here)
carbonyl contents per mg protein [1]: significant increase of carbonyl contents
number of TUNEL-positive cells in the ONL [2]: 1134.7±297.5 cells/mm^2
infiltration of CD11b-positive cells (immunofluorescence) [3]: significantly increased infiltration
number of TUNEL-positive cells [4]: 407.7±188.9 cells/mm^2
infiltration of CD11b-positive cells in the retina [5]: 514.7±54.5 cells/mm^2
number of TUNEL-positive cells in ONL [6]: slight effect
Fas ligand expression [7]: increased
% apoptotic cells (TEM) [8]: 13.3±1.5%
% necrotic cells (TEM) [8]: 22.1±1.0%
% unclassified (TEM) [8]: 1.0±0.6%
